The assay deals with T1, human vasopressin V1b receptor (Homo sapiens, UniProt P47901).
T1 construct: expressed in transfected cells; host or cells: CHO-K1 (cell line hV1b_3H2_CHO), membrane preparation
T1 sequence (P47901 1-424): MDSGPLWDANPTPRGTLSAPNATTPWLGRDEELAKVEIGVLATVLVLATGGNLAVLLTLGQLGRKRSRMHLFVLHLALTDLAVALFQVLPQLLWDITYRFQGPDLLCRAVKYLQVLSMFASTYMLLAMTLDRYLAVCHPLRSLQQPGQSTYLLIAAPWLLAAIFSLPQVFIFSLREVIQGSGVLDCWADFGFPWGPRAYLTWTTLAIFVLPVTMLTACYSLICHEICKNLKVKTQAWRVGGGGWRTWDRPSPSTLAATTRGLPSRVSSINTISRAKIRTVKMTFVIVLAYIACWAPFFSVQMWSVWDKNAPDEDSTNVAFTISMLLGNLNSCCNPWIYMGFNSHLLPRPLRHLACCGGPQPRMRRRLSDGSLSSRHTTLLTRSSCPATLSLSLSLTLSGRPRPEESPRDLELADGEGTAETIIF
As to the kind of experiment: Vasopressin V1b receptor binding test. Particulars: membranes of CHO-K1 cells with human V1b receptor, displacement of 1.5 nM 3H-AVP; for compounds with more than one stereogenic center the diastereomer with greater affinity. The protocol: Vasopressin V1b Receptor Binding Test:
The test substances were dissolved at a concentration of 10^−2 M in DMSO, and were further diluted to 5×10^−4 M to 5×10^−9 M in DMSO. This DMSO predilution series was diluted 1:10 with test buffer. In the test assay the substance concentration was further diluted to 1:5 (2% DMSO in the assay).
The membrane pellet was homogenized again as described and centrifuged, and was then taken up in 50 mM tris-HCl at pH 7.4, homogenized, and frozen in aliquots at −190° C. and stored in liquid nitrogen.
The incubation buffer was 50 mM tris, 10 mM MgCl2, and 0.1% BSA at pH 7.4. […] The nonspecific binding was determined using 1 μM AVP (Bachem #H1780). All determinations were performed in triplicate. After incubation (60 minutes at room temperature), the free radioligand was filtered off by vacuum filtration (Skatron 7000 cell harvester) through Wathman GF/B fiberglass filter mats, and the filters were transferred to scintillation vessels. The liquid scintillation measurement was conducted in a Model 2000 or 2200CA TriCarb unit (Packard). The measured cpm was converted to dpm using a standard quench series.
The binding parameters were calculated by nonlinear regression in SAS.
The affinities of the compounds according to the invention for human vasopressin receptor V1b were measured according to the above test, and the affinity constants (Ki) were determined.

Among the data in US8044079B2, “Substituted oxindole derivatives, medicaments containing said derivatives and use thereof” (Abbott GmbH & Co. KG, priority 2005, dated 2011) are Ki values, retold here.

For the compound `CCOc1ccc(CN2CCN(C)CC2)cc1C1(N2CCC[C@H]2c2ncco2)C(=O)N(S(=O)(=O)c2ccc(OC)cc2)c2ccc(Cl)cc21` (stereo partly drawn) [Example 202, 5-Chloro-3-[2-ethoxy-5-(4-methylpiperazin-1-ylmethyl)phenyl]-1-(4-methoxybenzenesulfonyl)-3-((S)-2-oxazol-2-yl-pyrrolidin-1-yl)-1,3-dihydroindol-2-one], the Ki – broadly, a dissociation constant, usually derived from enzyme kinetics or from competition with a known ligand – lay within 0.01 to 0.1 µM. The compound `COc1ccc(S(=O)(=O)N2C(=O)C(c3cc(CN4CCCC4)ccc3OC)(N3CCC[C@H]3c3ncco3)c3ccc(Cl)cc32)cc1` (stereo partly drawn) [Example 39, 6-Chloro-1-(4-methoxybenzenesulfonyl)-3-(2-methoxy-5-pyrrolidin-1-ylmethylphenyl)-3-((S)-2-oxazol-2-yl-pyrrolidin-1-yl)-1,3-dihydroindol-2-one] registered an inhibition constant (Ki) of 0.1 to 1 µM. Consider `COc1ccc(S(=O)(=O)N2C(=O)C(c3cc(CN4CCN(C(C)C)CC4)ccc3OC)(N3CCC[C@H]3c3ncco3)c3cc(C#N)ccc32)cc1` (stereo partly drawn) [Example 94, 5-Cyano-3-[5-(4-isopropylpiperazin-1-ylmethyl)-2-methoxyphenyl]-1-(4-methoxybenzenesulfonyl)-3-((S)-2-oxazol-2-yl-pyrrolidin-1-yl)-1,3-dihydroindol-2-one], for which the Ki was in the range of 0.01 to 0.1 µM. As to `COc1ccc(S(=O)(=O)N2C(=O)C(c3cc(CN4CCNCC4)ccc3OC)(N3CCC[C@H]3c3ncco3)c3cc(C#N)ccc32)cc1` (stereo partly drawn) [Example 57, 5-Cyano-1-(4-methoxybenzenesulfonyl)-3-(2-methoxy-5-piperazin-1-ylmethylphenyl)-3-((S)-2-oxazol-2-yl-pyrrolidin-1-yl)-1,3-dihydroindol-2-one], the Ki was below 0.01 µM. `COc1ccc(S(=O)(=O)N2C(=O)C(c3cc(CN4CCN(C)CC4)ccc3OC)(N3CCC[C@H]3c3ncco3)c3cc(Cl)c(F)cc32)cc1` (stereo partly drawn) [Example 198, 5-Chloro-6-fluoro-1-(4-methoxybenzenesulfonyl)-3-[2-methoxy-5-(4-methylpiperazin-1-ylmethyl)phenyl]-3-((S)-2-oxazol-2-yl-pyrrolidin-1-yl)-1,3-dihydroindol-2-one] yielded a Ki below 0.01 µM. On to `COc1cc(CN(C)C)ccc1C1(N2CCC[C@H]2c2ncco2)C(=O)N(S(=O)(=O)c2ccc(C#N)cc2)c2ccc(Cl)cc21` (stereo partly drawn) [Example 156, 5-Chloro-3-(4-dimethylaminomethyl-2-methoxyphenyl)-3-((S)-2-oxazol-2-yl-pyrrolidin-1-yl)-1-(4-cyanobenzenesulfonyl)-1,3-dihydroindol-2-one], for which the Ki was 0.01 to 0.1 µM. For the compound `COc1ccc(S(=O)(=O)N2C(=O)C(c3cc(CN4CCCC4)ccc3OC)(N3CCC[C@H]3c3ncco3)c3cc(C#N)ccc32)cc1` (stereo partly drawn) [Example 60, 5-Cyano-1-(4-methoxybenzenesulfonyl)-3-(2-methoxy-5-pyrrolidin-1-ylmethylphenyl)-3-((S)-2-oxazol-2-yl-pyrrolidin-1-yl)-1,3-dihydroindol-2-one], the Ki fell in the range of 0.01 to 0.1 µM. The value for `COc1ccc(S(=O)(=O)N2C(=O)C(c3cc(CN4CCN(C)CC4)ccc3OC)(N3CCC[C@H]3c3ncco3)c3cc(Cl)ccc32)cc1F` (stereo partly drawn) [Example 87, 5-Chloro-1-(3-fluoro-4-methoxybenzenesulfonyl)-3-[2-methoxy-5-(4-methylpiperazin-1-ylmethyl)phenyl]-3-((S)-2-oxazol-2-yl-pyrrolidin-1-yl)-1,3-dihydroindol-2-one] was 0.01 to 0.1 µM; that for `CNCc1ccc(OC)c(C2(N3C[C@H](O)C[C@H]3c3ncco3)C(=O)N(S(=O)(=O)c3ccc(OC)cc3)c3ccc(C#N)cc32)c1` (stereo partly drawn) [Example 163, 5-Cyano-3-((2S,4R)-4-hydroxy-2-oxazol-2-yl-pyrrolidin-1-yl)-1-(4-methoxybenzenesulfonyl)-3-(2-methoxy-5-methylaminomethylphenyl)-1,3-dihydroindol-2-one] was below 0.01 µM; that for `COc1ccc(S(=O)(=O)N2C(=O)C(c3cc(CN4CCN(C)CC4)ccc3OC)(N3C[C@H](O)C[C@H]3c3ncco3)c3cc(C#N)ccc32)cc1` (single isomer, unassigned) [Example 149] was below 0.01 µM. Compound `CCCNCc1ccc(OC)c(C2(N[C@@H](C)c3ncco3)C(=O)N(S(=O)(=O)c3ccc(OC)cc3)c3ccc(Cl)cc32)c1` (stereo partly drawn) [Example 134, 5-Chloro-1-(4-methoxybenzenesulfonyl)-3-(2-methoxy-5-propylaminomethylphenyl)-3-((S)-1-oxazol-2-yl-ethylamino)-1,3-dihydroindol-2-one] gave a Ki of 0.01 to 0.1 µM.

Compound `COc1ccc(S(=O)(=O)N2C(=O)C(c3cc(CN4CCCC4)ccc3OC)(N3CCC[C@H]3c3ncon3)c3cc(Cl)ccc32)cc1` (stereo partly drawn) [Example 210, 5-Chloro-1-(4-methoxybenzenesulfonyl)-3-(2-methoxy-5-pyrrolidin-1-ylmethylphenyl)-3-((S)-2-[1,2,4]oxadiazol-3-yl-pyrrolidin-1-yl)-1,3-dihydroindol-2-one] returned an inhibition constant Ki below 0.01 µM. The value for `COc1ccc(S(=O)(=O)N2C(=O)C(N[C@@H](C)c3ncco3)(c3cc(CN4CCNCC4)ccc3OC)c3cc(Cl)ccc32)cc1` (stereo partly drawn) [Example 135, 5-Chloro-1-(4-methoxybenzenesulfonyl)-3-(2-methoxy-5-(piperazin-1-ylmethyl)phenyl)-3-((S)-1-oxazol-2-yl-ethylamino)-1,3-dihydroindol-2-one] was below 0.01 µM.

Regarding `COc1ccc(S(=O)(=O)N2C(=O)C(c3cc(CN4CCN(CCO)CC4)ccc3OC)(N3C[C@H](OC(C)(C)C)C[C@H]3c3ncco3)c3cc(Cl)ccc32)cc1` (stereo partly drawn) [Example 215, 5-Chloro-3-((2S,4R)-4-tert-butoxy-2-oxazol-2-yl-pyrrolidin-1-yl)-3-{5-[4-(2-hydroxyethyl)piperazin-1-ylmethyl]-2-methoxyphenyl}-1-(4-methoxybenzenesulfonyl)-1,3-dihydroindol-2-one], the Ki was in the range of 0.01 to 0.1 µM.

`COc1ccc(S(=O)(=O)N2C(=O)C(c3ccc(CN4CCN(C)CC4)cc3OC)(N3CCC[C@H]3c3ncco3)c3cc(C#N)ccc32)cc1` (stereo partly drawn) [Example 42, 5-Cyano-1-(4-methoxybenzenesulfonyl)-3-[2-methoxy-4-(4-methylpiperazin-1-ylmethyl)phenyl]-3-((S)-2-oxazol-2-yl-pyrrolidin-1-yl)-1,3-dihydroindol-2-one] gave a Ki of 0.01 to 0.1 µM. In the case of `CCN1CCN(Cc2ccc(OC)c(C3(N4CCC[C@@]4(C)c4ncco4)C(=O)N(S(=O)(=O)c4ccc(OC)cc4)c4ccc(Cl)cc43)c2)CC1` (stereo partly drawn) [Example 232, 5-Chloro-3-[5-(4-ethylpiperazin-1-ylmethyl)-2-methoxyphenyl]-1-(4-methoxybenzenesulfonyl)-3-((S)-2-methyl-2-oxazol-2-yl-pyrrolidin-1-yl)-1,3-dihydroindol-2-one] it was below 0.01 µM; in that of `CCOc1ccc(CNC)cc1C1(N2CCC[C@H]2c2ncco2)C(=O)N(S(=O)(=O)c2ccc(OC)cc2)c2ccc(Cl)cc21` (stereo partly drawn) [Example 203, 5-Chloro-3-(2-ethoxy-5-methylaminomethylphenyl)-1-(4-methoxybenzenesulfonyl)-3-((S)-2-oxazol-2-yl-pyrrolidin-1-yl)-1,3-dihydroindol-2-one], 0.01 to 0.1 µM. `COc1cc(CN2CCN(C)CC2)ccc1C1(N2CCC[C@H]2c2ncco2)C(=O)N(S(=O)(=O)c2ccc(C#N)cc2)c2ccc(Cl)cc21` (stereo partly drawn) [Example 158, 5-Chloro-3-[2-methoxy-4-(4-methylpiperazin-1-ylmethyl)phenyl]-3-((S)-2-oxazol-2-yl-pyrrolidin-1-yl)-1-(4-cyanobenzenesulfonyl)-1,3-dihydroindol-2-one] came in with a Ki below 0.01 µM. The value for `COc1ccc(S(=O)(=O)N2C(=O)C(NCc3ncco3)(c3cc(CN4CCN(C)CC4)ccc3OC)c3cc(Cl)ccc32)cc1` (stereo not drawn) [Example 110, 5-Chloro-1-(4-methoxybenzenesulfonyl)-3-[2-methoxy-5-(4-methylpiperazin-1-ylmethyl)phenyl]-3-[(oxazol-2-ylmethyl)amino]-1,3-dihydroindol-2-one] was 0.01 to 0.1 µM; that for `COc1ccc(S(=O)(=O)N2C(=O)C(N[C@@H](C)c3ncco3)(c3cc(CNCCO)ccc3OC)c3cc(Cl)ccc32)cc1` (stereo partly drawn) [Example 140, 5-Chloro-3-{5-[(2-hydroxyethylamino)methyl]-2-methoxyphenyl}-1-(4-methoxybenzenesulfonyl)-3-((S)-1-oxazol-2-yl-ethylamino)-1,3-dihydroindol-2-one] was below 0.01 µM.

Consider `COc1ccc(S(=O)(=O)N2C(=O)C(c3cc(CN4CCN(CCO)CC4)ccc3OC)(N3CCC[C@@]3(C)c3ncco3)c3cc(Cl)ccc32)cc1` (stereo partly drawn) [Example 226, 5-Chloro-3-{5-[4-(2-hydroxyethyl)piperazin-1-ylmethyl]-2-methoxyphenyl}-1-(4-methoxybenzenesulfonyl)-3-((S)-2-methyl-2-oxazol-2-yl-pyrrolidin-1-yl)-1,3-dihydroindol-2-one], for which the Ki is below 0.01 µM.
